The source of these data is patent US7153866B1 (The United States of America as represented by the …, priority 1997, dated 2006).

The test system of data set [1] is neoplastic cell lines. The following applies: in vitro; Monti et al., PAACR 1995 and 1997; cited from earlier work.
The test system of data set [2] is C3H female mice. Description: Lifetime incidence of cancer in normal C3H female mice given Tempol in drinking water. The format is in vivo. As to conditions: FIG. 2. From the text:
Female C3H mice were supplied through the Frederick Cancer Research Center-Animal Production, Frederick, Md. […] All groups were allowed food and water ad libitum. All groups were followed for their entire life span. Animals were sacrificed at the first sign of a visible tumor nodule, gross enlargement of spleen, or marked difficulty in breathing. The presence of tumor was confirmed histologically.

Regarding `CC1(C)CC(O)CC(C)(C)N1[O]` [Tempol, 4-hydroxy-2,2,6,6-tetramethylpiperidine-1-oxyl], the “cytotoxicity against neoplastic cell lines” value in data set [1] is reported as “cytotoxic”. Also, in data set [2] (Tempol 58 mM in drinking water for entire life span), the “incidence of cancer (total number of tumors/group) compared to controls” value is on record as “four-fold reduction”. Also, the “incidence of cancer (total number of tumors/group) compared to both control groups” value in data set [2] (Tempol 58 mM in drinking water for one year) is given as “dramatically reduced the incidence of cancer”.
